Experimental data as given in PubChem BioAssay AID743336 (Broad Institute, 2014).
Inconclusive results are not listed.

Tested on: C2C12 myotubes + simvastatin, ATP luminescence, 48 h
Assay: suppressors of statin-induced myotube ATP loss, dose response, cell-based, differentiated C2C12, luminescence, dry powder (AID 743336)

Row | Compound | AC40
1 | C[C@@H]1CN([C@H](C)CO)C(=O)c2cc(NC(=O)Nc3cccc4ccccc34)ccc2O[C@@H]1CN(C)Cc1ccc(C(=O)Nc2ccccc2N)cc1 | 15.9 µM
2 | C[C@H](CO)N1C[C@H](C)[C@H](CN(C)CC2CCCCC2)Oc2ccc(NC(=O)CCCCCC(=O)Nc3ccccc3N)cc2CC1=O | 9.21 µM
